SMILES strings stand for the structures.

In the first test the target is T1, SMYD2 (Homo sapiens, UniProt Q9NRG4).
T1 construct: Full length SMYD2 (NP 064582.2) was cloned; His6 (N, cleaved yes); FLAG (N); made in house; host or cells: Sf9 insect cells
T1 sequence (Q9NRG4 whole entry): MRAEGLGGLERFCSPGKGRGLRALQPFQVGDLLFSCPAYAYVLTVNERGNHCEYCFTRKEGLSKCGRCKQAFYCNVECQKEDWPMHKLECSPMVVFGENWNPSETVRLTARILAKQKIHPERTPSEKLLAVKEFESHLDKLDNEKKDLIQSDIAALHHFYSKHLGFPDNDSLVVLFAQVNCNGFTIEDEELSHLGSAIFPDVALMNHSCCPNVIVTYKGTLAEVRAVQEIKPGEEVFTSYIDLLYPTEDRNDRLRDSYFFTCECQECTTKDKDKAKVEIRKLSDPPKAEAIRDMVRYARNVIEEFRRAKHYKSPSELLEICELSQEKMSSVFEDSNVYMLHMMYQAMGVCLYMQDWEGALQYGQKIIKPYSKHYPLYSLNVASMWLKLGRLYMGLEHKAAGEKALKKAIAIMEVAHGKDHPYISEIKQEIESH
The experiment in a line: SMYD2 Biochemical Assay (3H-SAM, biotinylated peptide substrate, Flashplate). The following applies: IC50 values are an average of n = 1 to n = 50; read-out: SMYD2 Biochem IC50 (μM)*. An excerpt: S-adenosylmethionine (SAM), S-adenosylhomocysteine (SAH), bicine, Tween20, dimethylsulfoxide (DMSO), bovine skin gelatin (BSG), and Tris(2-carboxyethyl)phosphine hydrochloride (TCEP) were purchased from Sigma-Aldrich at the highest level of purity possible. ^3H-SAM was purchase from American Radiolabeled Chemicals with a specific activity of 80 Ci/mmol. 384-well streptavidin Flashplates were purchased from PerkinElmer.
Peptide was synthesized with a N-terminal linker-affinity tag motif and a C-terminal amide cap by 21st Century Biochemicals. The peptide was high-performance liquid chromatography (HPLC) purified to greater than 95% purity and confirmed by liquid chromatography mass spectrometry (LC-MS). The sequence was […](K-Biot)-amide. (SEQ ID No: 3)
Full length SMYD2 (NP 064582.2) was cloned into a pFastbac-Htb-lic vector with an N-terminal His6 tag and FLAG tag, preceded by a TEV protease cleavage site. The protein was expressed in Sf9 insect cells. Cells were resuspended in lysis buffer (25 mM HEPES-NaOH, pH 7.5, 200 mM NaCl, 5% glycerol, and 5 mM β-ME) and lysed by sonication. The protein was purified by Ni-NTA (Qiagen), followed by TEV cleavage to remove the His6 tag, subtractive Ni-NTA (Qiagen), and gel filtration chromatography using an […] (GE Healthcare). Purified protein was stored in 20 mM Tris-HCl, pH 8.0, 100 mM NaCl, and 1 mM TCEP.
The assays were all performed in a buffer consisting of 20 mM Bicine (pH=7.6), 1 mM TCEP, 0.005% Bovine Skin Gelatin, and 0.002% Tween20, prepared on the day of use. Compounds in 100% DMSO (1 ul) were spotted into a polypropylene 384-well V-bottom plates (Greiner) using a Platemate Plus outfitted with a 384-channel head (Thermo Scientific). DMSO (1 ul) was added to Columns 11, 12, 23, 24, rows A-H for the maximum signal control and 1 ul of SAH, a known product and inhibitor of SMYD2, was added to columns 11, 12, 23, 24, rows I-P for the minimum signal control. A cocktail (40 ul) containing the SMYD2 enzyme was added by Multidrop Combi (Thermo-Fisher). The compounds were allowed to incubate with SMYD2 for 30 min at room temperature, then a cocktail (10 ul) containing ^3H-SAM and peptide was added to initiate the reaction (final volume=51 ul). The final concentrations of the components were as follows: SMYD2 was 1.5 nM, ^3H-SAM was 10 nM, and peptide was 60 nM, SAH in the minimum signal control wells was 1000 uM, and the DMSO concentration was 2%. The assays were stopped by the addition of non-radioactive SAM (10 ul) to a final concentration of 600 uM, which dilutes the ^3H-SAM to a level where its incorporation into the peptide substrate is no longer detectable. 50 ul of the reaction in the 384-well polypropylene plate was then transferred to a 384-well Flashplate and the biotinylated peptides were allowed to bind to the streptavidin surface for at least 1 hour before being washed three times with 0.1% Tween20 in a Biotek ELx405 plate washer. The plates were then read in a PerkinElmer TopCount plate reader to measure the quantity of ^3H-labeled peptide bound to the Flashplate surface, measured as disintegrations per minute (dpm) or alternatively, referred to as counts per minute (cpm).
Where dpm=disintegrations per minute, cmpd=signal in assay well, and min and max are the respective minimum and maximum signal controls.
Where top and bottom are the normally allowed to float, but may be fixed at 100 or 0 respectively in a 3-parameter fit. The Hill Coefficient normally allowed to float but may also be fixed at 1 in a 3-parameter fit. I is the compound concentration.
SMYD2 biochemical assay data for representative Compounds of the Disclosure are presented in Tables 1-3 in the column titled “SMYD2 Biochem IC50 (μM).”
What is called IC50 is the concentration that gives 50% inhibition. As for `C[C@@H]1CN(CC(=O)N2CCN(C)CC2)C[C@H]1NC(=O)c1cc(C2CC2)on1` (racemic) [compound 294, (±)-trans-5-cyclopropyl-N-{4-methyl-1-[2-(4-methylpiperazin-1-yl)-2-oxoethyl]pyrrolidin-3-yl}-1,2-oxazole-3-carboxamide], the IC50 was more than 50 µM.
In the case of `CC[C@H]1CN(C)C[C@H]1NC(=O)c1cc(C2CC2)on1` (racemic) [compound 187, (±)-cis-5-cyclopropyl-N-[4-ethyl-1-methyl-pyrrolidin-3-yl]-1,2-oxazole-3-carboxamide], the IC50 was 18.1 µM.
Same read-out and setting: with `C[C@@H]1CN(CC2CCN(C)CC2)C[C@H]1NC(=O)c1cc(C2CC2)on1` (racemic) [compound 158, (±)-trans-5-cyclopropyl-N-[4-methyl-1-[(1-methylpiperidin-4-yl)methyl]pyrrolidin-3-yl]-1,2-oxazole-3-carboxamide] the figure was more than 50 µM; with `Cc1nn(C)cc1CN1C[C@H](C)[C@H](NC(=O)c2cc(C3CC3)on2)C1` (racemic) [compound 326, (±)-cis-5-cyclopropyl-N-{1-[(1,3-dimethyl-1H-pyrazol-4-yl)methyl]-4-methylpyrrolidin-3-yl}-1,2-oxazole-3-carboxamide], 1.67 µM; with `C[C@H]1CN(Cc2c[nH]c3cc(Cl)ccc23)C[C@H]1NC(=O)c1cc(C2CC2)on1` (racemic) [compound 324, (±)-cis-N-{1-[(6-chloro-1H-indol-3-yl)methyl]-4-methylpyrrolidin-3-yl}-5-cyclopropyl-1,2-oxazole-3-carboxamide], 9.34 µM.
For the compound `C[C@H]1CN(CC(=O)N2CCN(C)CC2)C[C@H]1NC(=O)c1cc(C2CC2)on1` (racemic) [compound 263, (±)-cis-5-cyclopropyl-N-[4-methyl-1-[2-(4-methylpiperazin-1-yl)-2-oxoethyl]pyrrolidin-3-yl]-1,2-oxazole-3-carboxamide], the IC50 was more than 50 µM.
Take `C[C@@H]1CN(CC2CCNC2)C[C@H]1NC(=O)c1cc(C2CC2)on1` (mixture of isomers) [compound 161, (±)-trans-5-cyclopropyl-N-[4-methyl-1-(pyrrolidin-3-ylmethyl)pyrrolidin-3-yl]-1,2-oxazole-3-carboxamide]: the IC50 was more than 50 µM.
The same measure, in the same setting: with `C[C@@H]1CN(Cc2ccnc3ccccc23)C[C@H]1NC(=O)c1cc(C2CC2)on1` (racemic) [compound 159, (±)-trans-5-cyclopropyl-N-[4-methyl-1-(quinolin-4-ylmethyl)pyrrolidin-3-yl]-1,2-oxazole-3-carboxamide] the figure was more than 50 µM.
Still for that read-out and setting: with `C[C@H]1CN(Cc2cc([N+](=O)[O-])ccc2F)C[C@H]1NC(=O)c1cc(C2CC2)on1` (racemic) [compound 282, (±)-cis-5-cyclopropyl-N-{1-[(2-fluoro-5-nitrophenyl)methyl]-4-methylpyrrolidin-3-yl}-1,2-oxazole-3-carboxamide] the figure was 26.7 µM; with `C[C@H]1CN(CC2CCOCC2)C[C@H]1NC(=O)c1cc(C2CC2)on1` (racemic) [compound 175, (±)-cis-5-cyclopropyl-N-[4-methyl-1-(oxan-4-ylmethyl)pyrrolidin-3-yl]-1,2-oxazole-3-carboxamide], 3.95 µM; with `C[C@H]1CN(Cc2ccc(Cl)cc2)C[C@H]1NC(=O)c1cc(C2CC2)on1` (racemic) [compound 210, (±)-cis-N-[1-[(4-chloro-phenyl)methyl]-4-methylpyrrolidin-3-yl]-5-cyclopropyl-1,2-oxazole-3-carboxamide], 4.32 µM.
Same read-out and setting: as for `C[C@@H]1CN(Cc2ccc(N3CCCC3)cc2)C[C@H]1NC(=O)c1cc(C2CC2)on1` (racemic) [compound 172, (±)-trans-5-cyclopropyl-N-[4-methyl-1-{[4-(pyrrolidin-1-yl)phenyl]methyl}pyrrolidin-3-yl]-1,2-oxazole-3-carboxamide], the figure is 29.5 µM.
As to `CCc1nc(C)c(CN2C[C@H](C)[C@H](NC(=O)c3cc(C4CC4)on3)C2)[nH]1` (racemic) [compound 196, (±)-cis-5-cyclopropyl-N-(1-[(2-ethyl-4-methyl-1H-imidazol-5-yl)methyl]-4-methylpyrrolidin-3-yl)-1,2-oxazole-3-carboxamide], the concentration for half-maximal inhibition (IC50) stood at 35.5 µM.
Still for that read-out and setting: as for `C[C@H]1CN(Cc2ccc(N3CCCC3)cc2)C[C@H]1NC(=O)c1cc(C2CC2)on1` (racemic) [compound 229, (±)-cis-5-cyclopropyl-N-[4-methyl-1-{[4-(pyrrolidin-1-yl)phenyl]methyl}pyrrolidin-3-yl]-1,2-oxazole-3-carboxamide], the figure is 3.32 µM.
The same measure, in the same setting: with `COc1cc(CN2C[C@@H](C)[C@H](NC(=O)c3cc(C4CC4)on3)C2)cc(OC)c1` (racemic) [compound 181, (±)-trans-5-cyclopropyl-N-[1-[(3,5-dimethoxy-phenyl)methyl]-4-methylpyrrolidin-3-yl]-1,2-oxazole-3-carboxamide] the figure was more than 50 µM; with `C[C@@H]1CN(Cc2ccc3ncccc3c2)C[C@H]1NC(=O)c1cc(C2CC2)on1` (racemic) [compound 204, (±)-trans-5-cyclopropyl-N-[4-methyl-1-(quinolin-6-ylmethyl)pyrrolidin-3-yl]-1,2-oxazole-3-carboxamide], more than 50 µM.
Consider `C[C@H](c1ccccc1)N1C[C@@H](CO)[C@H](NC(=O)c2cc(C3CC3)on2)C1` [compound 119, 5-cyclopropyl-N-[(3S,4R)-4-(hydroxymethyl)-1-[(1R)-1-phenylethyl]pyrrolidin-3-yl]-1,2-oxazole-3-carboxamide], for which the IC50 is 38.2 µM.
Still for that read-out and setting: as for `CC(C)N1C[C@@H](C(F)(F)F)[C@H](NC(=O)c2cc(C3CC3)on2)C1` (racemic) [compound 252, (±)-trans-5-cyclopropyl-N-[1-(propan-2-yl)-4-(trifluoromethyl)pyrrolidin-3-yl]-1,2-oxazole-3-carboxamide], the figure is more than 50 µM.

Staying with this test, now noted: Table 1; average of n = 1 to n = 50; read-out: SMYD2 Biochem IC50.
With `CCc1cc(C(=O)N[C@@H]2CN(C3CC3)C[C@@H]2C)no1` (racemic) [compound 112, (±)-cis-N-(1-cyclopropyl-4-methylpyrrolidin-3-yl)-5-ethyl-isoxazole-3-carboxamide], the IC50 was found to be 9.4 µM.
Still for that read-out and setting: as for `O=C(NC1CCN(C2CC2)C1)c1cc(C2CC2)on1` (stereo not drawn) [compound 36, 5-cyclopropyl-N-(1-cyclopropylpyrrolidin-3-yl)isoxazole-3-carboxamide], the figure is 32.5 µM.
In the case of `O=C(N[C@@H]1CN(C2CC2)C[C@@H]1CO)c1cc(C2CC2)on1` (racemic) [Cpd. No. 48, (±)-cis-5-cyclopropyl-N-(1-cyclopropyl-4-(hydroxymethyl)pyrrolidin-3-yl)isoxazole-3-carboxamide], the IC50 was 8.46 µM.

Still in this test, the particulars now being: Table 2; average of n = 1 to n = 50; read-out: SMYD2 Biochem IC50.
`CCN1C[C@@H](C)[C@H](NC(=O)c2cc(C3CC3)on2)C1` (racemic) [compound 88, (±)-trans-5-cyclopropyl-N-(1-ethyl-4-methylpyrrolidin-3-yl)isoxazole-3-carboxamide]: the IC50 was 34.2 µM.
On the same count and under the same terms, with `C[C@@H]1CN(C2CCN(C(=O)OC(C)(C)C)CC2)C[C@@H]1NC(=O)c1cc(C2CC2)on1` (racemic) [compound 80, (±)-cis-tert-butyl 4-(3-(5-cyclopropylisoxazole-3-carboxamido)-4-methylpyrrolidin-1-yl)piperidine-1-carboxylate] the figure was 30.5 µM; with `CC(=O)N1C[C@@H](C)[C@H](NC(=O)c2cc(C3CC3)on2)C1` (racemic) [compound 89, (±)-trans-N-(1-acetyl-4-methylpyrrolidin-3-yl)-5-cyclopropylisoxazole-3-carboxamide], more than 50 µM.
